{
  "source": "patent US20240285730A1",
  "about": "“COMPOSITIONS AND METHODS FOR THE TREATMENT OF GRAFT VERSUS HOST DISEASE” (VectivBio AG, priority 2021, published 2024)",
  "key": {"WBC, NEU and LYMPH": {"system": "WBC, NEU and LYMPH", "assay": "Melphalan-induced immunosuppression (WBC, NEU, LYMPH)", "assay_type": "in vivo, Balb/c mice", "method": "In a third experiment, the effect of apraglutide on melphalan-induced immunosuppression was assessed (FIG. 13). Three groups of Balb/c mice were included: (A) vehicle; (B) melphalan on Day 9; (C) melphalan on Day 9, apraglutide pre-treatment on Days 1, 3, 5, 7 and continued as co-administration on Days 9, 11, and 13. WBC, NEU and LYMPH were assessed."}, "[1]": {"system": "fecal microbiota (Bacteroidetes, Firmicutes)", "assay": "Fecal microbiota composition during cytarabine chemotherapy (16S taxonomical meta-sequencing)", "assay_type": "in vivo, Balb/c mice", "details": "for changes in the composition of bacterial species (Bacteroidetes, Firmicutes): Days 0 to 18"}, "[2]": {"system": "cytarabine-induced toxicity", "assay": "Apraglutide dose-response study with cytarabine chemotherapy", "assay_type": "in vivo, BALB/cJ female mice", "details": "for polymorphonuclear (PMN) cell count: cytarabine alone or combined with hGLP-2 or apraglutide", "method": "The apraglutide dose-dependent impact on the immunosuppressive effect of cytarabine was evaluated. The effect of cytarabine treatment on polymorphonuclear (PMN) cell count was determined (FIG. 20). […] In a separate study during which animals treated with cytarabine alone or in combination with apraglutide initiated before cytarabine (Days-4 to +12) were allowed to survive for 4 additional weeks."}, "human leukemia cells": {"system": "human leukemia cells", "details": "vs vehicle", "procedure": "In a first experiment, cytarabine's anti-tumor effects were assessed in leukemic NOD/SCID mice (FIG. 11a). Apraglutide or vehicle was administered on Days −4 to 4. Cytarabine or vehicle was administered on Days 0-4. Bone marrow and spleen samples were collected on Day 7 and percentage of hCD45+ cells determined."}, "[3]": {"system": "acute gastrointestinal GvHD mouse model", "assay": "Acute GvHD mouse model, first experiment (8.5 Gy irradiation + allogeneic bone marrow/spleen cell transplant)", "assay_type": "in vivo, BALB/cJ male mice", "method": "Mouse #3 (Group A), #13 (Group B) and #20 (Group B) were administered the cells by subcutaneous injection rather than intravenously. Mouse #5 (Group B) and #10 (Group B) received half the cells by intravenous injection and half by subcutaneous injection.\nVarious histological parameters of the jejunum were also measured, including single cell necrosis levels, necrosis of all crypts, shortening of villi, cryptal hyperplasia (regenerative), cell infiltrate, and cryptal abscess. These histological parameters were graded on a standard histological grading system (1 to 3). […] These indicate that the administration of apraglutide has a protective effective against jejunal mucosal damages induced by irradiation and GvHD."}, "[4]": {"system": "acute GVHD-induced intestinal damage", "assay": "TBI-induced intestinal damage with allogeneic transplantation (Example 2, second experiment)", "procedure": "In a second experiment, TBI-induced intestinal damaged BALB/cJ mice received allogeneic transplantation and were treated with apraglutide (3.3 mg/kg) or vehicle on Days −9, −7, −5, −3-1, +1, +3, +5, +7. Intestinal damage indicative of GvHD (histological changes, length, hemorrhage, inflammation), body weight, and survival were assessed."}, "[5]": {"system": "chemotherapy-induced gastrointestinal (GI) damage", "assay": "Chemotherapy-induced (cytarabine or melphalan) intestinal damage in mice", "assay_type": "in vivo, Balb/c mice", "method": "In a first experiment, 4 groups of Balb/c mice: (A) vehicle only; (B) cytarabine on Days 5-9, no apraglutide given; (C) cytarabine on Days 5-9; concomitant apraglutide on Days 5-18; (D) cytarabine on Days 5-9; pre-treatment apraglutide on Days 1, 3, and continued as concomitant treatment on Days 5, 8, 11, 14, and 17. Treatment groups were dosed with 30 mg/kg cytarabine and/or apraglutide 3.3 mg/kg.\nIn a second experiment, 3 treatment groups of Balb/c mice: (A) vehicle only; (B) melphalan on Day 9, no apraglutide; (C) melphalan on Day 9; pre-treatment apraglutide on Days 1, 3, 5, 7 and continued as concomitant treatment on Days 9, 11, and 13.\nIn both models, mice that received vehicle without any treatment served as controls. Intestinal tissue histology, body weight, survival, and plasma citrulline, a marker of total mucosal mass and intestinal growth, was assessed in both models."}, "[6]": {"system": "acute gastrointestinal GvHD mouse model", "assay": "Acute GvHD mouse model, second experiment (7.0 Gy irradiation + allogeneic transplant)", "procedure": "In a second experiment BALB/cJ male mice were separated into three groups, Group A, Group B and Group C. Groups A and B consisted of 10 mice and Group C consisted of 5 mice.\nMice in Group A received subcutaneous injections of apraglutide in an amount of 3 mg/kg/mouse (administered in 300 μl of vehicle), every second day from Day −9 to Day +7 (Days: −9, −7, −5, −3-1, +1, +3, +5, +7).\nMice in Group B received subcutaneous injections of 300 μl of vehicle control every second day starting from Day −9 to Day +7 (Days: −9, −7, −5, −3−1, +1, +3, +5, +7).\nMice in Group C received subcutaneous injections of 300 μl of vehicle control every second day starting from Day −9 to Day +7 (Days: −9, −7, −5, −3−1, +1, +3, +5, +7).\nOn Day −1 of the experiment, all mice in Groups A and B were irradiated with 7.0 Gy using an linac x-ray source. Group C was not irradiated but were injected with the vehicle only.\nOn Day 0 of the experiment, bone marrow and T cells from C57BL/6J mice were collected, prepared and transplanted into the mice of Group A and Group B. Each mouse in Group A and Group B was intravenously injected with 10 million bone marrows cells extracted from the femurs of the C57BL/6J mice and 2.5 million spleen cells extracted from the C57BL/6J mice.\nMorbidity, mortality, body weight, clinical signs (diarrhea, appearance and behavior), length of intestinal segments, and histopathology of the intestine, skin, spleen and liver were monitored in the mice of Group A, Group B and Group C. All mice were sacrificed at Day +14 at the latest."}, "blood cell count": {"system": "blood cell count", "assay": "Cytarabine-induced immunosuppression (blood cell counts)", "assay_type": "in vivo, Balb/c mice", "details": "4 weeks after the end of treatment", "method": "In a second experiment, apraglutide's effect on the ability of cytarabine to induce immunosuppression was assessed. The experiment included three groups of Balb/c mice: (A) vehicle; (B) cytarabine on Days 5-9; (C) cytarabine on Days 5-9, concomitant apraglutide on Days 5-18. RBC, platelets, WBC, NEU and LYMPH were assessed. A cohort was allowed to survive for 4 weeks to assess the effect of apraglutide on immunosuppression recovery (FIG. 12)."}, "[7]": {"system": "human peripheral blood mononuclear cell (hPBMC) engraftment", "assay": "Engraftment of human PBMC in total-body-irradiated NOG mice", "assay_type": "in vivo, immunodeficient (NOG) mice", "method": "Engraftment rate was determined through CD45 expression in blood, bone marrow and spleen."}, "[8]": {"details": "apraglutide 3 mg/kg s.c., histological grading 1 to 3, vs vehicle"}, "[9]": {"details": "apraglutide 3.3 mg/kg vs vehicle"}},
  "note": "“Also recorded” adds a separate entry of the source. Square brackets hold non-standard residues; d marks the D form. Peptide text beside a SMILES is read from it. ξ: configuration not given here. Ile(3ξ) = CCC(C)[C@H](N)C(=O)O; Thr(3ξ) = CC(O)[C@H](N)C(=O)O; Nle = CCCC[C@H](N)C(=O)O",
  "data": [
    {"smiles": "N[C@@H](Cc1ccc(N(CCCl)CCCl)cc1)C(=O)O", "note": "[melphalan, Melphalan, reference compound]", "values": [
      {"measurement": "WBC and LYMPH vs vehicle", "setting": "WBC, NEU and LYMPH; melphalan on Day 9, with or without apraglutide", "result": "severe decreases"}
    ]},
    {"smiles": "Nc1ccn([C@@H]2O[C@H](CO)[C@@H](O)[C@@H]2O)c(=O)n1", "note": "[Cytarabine only, Cytarabine]", "values": [
      {"measurement": "Bacteroidetes, mean (Table 1b)", "setting": "[1]; Day 0", "result": 18.3},
      {"measurement": "Firmicutes, mean (Table 1b)", "setting": "[1]; Day 0", "result": 78.7},
      {"measurement": "unclassified phylum, mean (Table 1b)", "setting": "[1]; Day 0", "result": 1.3},
      {"measurement": "Bacteroidetes, mean (Table 1b)", "setting": "[1]; Day 18", "result": 48.7},
      {"measurement": "Firmicutes, mean (Table 1b)", "setting": "[1]; Day 18", "result": 49.6},
      {"measurement": "unclassified phylum, mean (Table 1b)", "setting": "[1]; Day 18", "result": 1.2},
      {"measurement": "changes in the composition of bacterial species (Bacteroidetes, Firmicutes)", "setting": "[1]", "result": "increasing the Bacteroidetes population and decreasing the proportion of Firmicutes bacteria"},
      {"measurement": "polymorphonuclear (PMN) cell count", "setting": "[2]", "result": "depleted PMN counts"},
      {"measurement": "reduction in human leukemia cells", "setting": "human leukemia cells", "result": "significantly greater than vehicle"}
    ]},
    {"smiles": "CCCC[C@H](NC(=O)[C@H](CCC(=O)O)NC(=O)[C@H](CC(=O)O)NC(=O)[C@H](CO)NC(=O)[C@H](Cc1ccccc1)NC(=O)[C@H](CO)NC(=O)CNC(=O)[C@H](CC(=O)O)NC(=O)CNC(=O)[C@@H](N)Cc1c[nH]cn1)C(=O)N[C@H](Cc1ccccc1)C(=O)N[C@H](C(=O)N[C@H](C(=O)N[C@@H](CC(C)C)C(=O)N[C@@H](CC(=O)O)C(=O)N[C@@H](CC(C)C)C(=O)N[C@@H](CC(C)C)C(=O)N[C@@H](C)C(=O)N[C@@H](C)C(=O)N[C@@H](CCCNC(=N)N)C(=O)N[C@@H](CC(=O)O)C(=O)N[C@@H](Cc1ccccc1)C(=O)N[C@H](C(=O)N[C@@H](CC(N)=O)C(=O)N[C@@H](Cc1c[nH]c2ccccc12)C(=O)N[C@@H](CC(C)C)C(=O)N[C@H](C(=O)N[C@@H](CCC(N)=O)C(=O)N[C@H](C(=O)N[C@@H](CCCCN)C(=O)N[C@H](C(=O)N[C@H](C(=O)N[C@@H](CC(=O)O)C(N)=O)C(C)O)C(C)CC)C(C)O)C(C)CC)C(C)CC)C(C)CC)C(C)O", "note": "(stereo partly drawn) [apraglutide] (H-HGDGSFSDE[Nle][dF][Thr(3ξ)][Ile(3ξ)]LDLLAARDF[Ile(3ξ)]NWL[Ile(3ξ)]Q[Thr(3ξ)]K[Ile(3ξ)][Thr(3ξ)]D-NH2)", "values": [
      {"measurement": "changes in the composition of bacterial species (Bacteroidetes, Firmicutes)", "setting": "[1]", "result": "the effect was reduced"},
      {"measurement": "colon length", "setting": "[3]; 8.5 Gy + C57BL/6J bone marrow/spleen cells, apraglutide 3 mg/kg s.c. every second day Day −9 to +7, vs vehicle group", "result": "increased colon lengths that were nearly the same as the control mice"},
      {"measurement": "mean severity score of the regenerative cryptal hyperplasia (jejunum)", "setting": "[3]; [8]", "result": "slightly increased"},
      {"measurement": "overall mean severity score of mucosal degenerative/inflammatory changes in the jejunum", "setting": "[3]; [8]", "result": "slightly decreased"},
      {"measurement": "improvement in animal survival vs cytarabine alone", "setting": "[2]; all apraglutide-treated groups", "result": "statistically significant"},
      {"measurement": "plasma citrulline concentrations", "setting": "[2]; apraglutide 0.33 mg/kg and 1.1 mg/kg with cytarabine vs cytarabine alone", "result": "improvement in citrulline concentrations"},
      {"measurement": "polymorphonuclear (PMN) cell count", "setting": "[2]", "result": "not reversed"},
      {"measurement": "initial weight loss", "setting": "[2]; cytarabine combined with 0.11 mg/kg apraglutide or hGLP-2 (0.60 mg/kg twice daily)", "result": "did not decrease initial weight loss"},
      {"measurement": "lymphocyte engraftment", "setting": "[4]; apraglutide 3.3 mg/kg Days −9 to +7", "result": "successfully achieved"},
      {"measurement": "median survival", "setting": "[4]; [9]", "result": "similar"},
      {"measurement": "post-mortem histological examination, mucosal degenerative/inflammatory changes", "setting": "[4]; [9]", "result": "less mucosal degenerative/inflammatory changes"},
      {"measurement": "weight loss", "setting": "[4]; [9]", "result": "similar"},
      {"measurement": "overall survival", "setting": "[4]; on Day +9, apraglutide 3.3 mg/kg", "result": 40, "unit": "%"},
      {"measurement": "degenerative intestinal changes (villi and crypt atrophy) caused by cytarabine or melphalan", "setting": "[5]; apraglutide co-administration, 3.3 mg/kg", "result": "reduced"},
      {"measurement": "chemotherapy-induced weight loss", "setting": "[5]; apraglutide with cytarabine or melphalan", "result": "attenuated"},
      {"measurement": "overall survival", "setting": "[5]; vs vehicle-only or chemotherapy-only groups", "result": "improved overall survival"},
      {"measurement": "weight of duodenum, ileum and jejunum", "setting": "[5]; with apraglutide", "result": "increased in weight"},
      {"measurement": "mice survived past Day 9", "setting": "[6]; 7.0 Gy + allogeneic transplant, apraglutide 3 mg/kg s.c.", "result": 40, "unit": "%"},
      {"measurement": "median survival", "setting": "[6]; 7.0 Gy + allogeneic transplant, apraglutide 3 mg/kg s.c. Day −9 to +7", "result": 9, "unit": "days"},
      {"measurement": "body weight of surviving mice beyond Day 9", "setting": "[6]; Group A", "result": "regained body weight"},
      {"measurement": "length of the small intestine", "setting": "[6]; Groups A, B and C compared", "result": "no differences were observed"},
      {"measurement": "weight loss, Group A vs Group B", "setting": "[6]; apraglutide 3 mg/kg s.c. vs vehicle, both TBI/BMT", "result": "No significant difference"},
      {"measurement": "animal survival (Kaplan-Meier)", "setting": "[6]; apraglutide initiated before TBI/BMT vs TBI/BMT animals", "result": "enhanced survival; also recorded: significant difference relative to TBI/BMT animals"},
      {"measurement": "mice with intestinal pathological score of 0", "setting": "[6]; score 0 least severe to 4 most severe, Group A, 10 mice", "result": "four out of out of ten"},
      {"measurement": "recovery of hematological parameters", "setting": "blood cell count", "result": "did not impact"},
      {"measurement": "impact on cytarabine- or melphalan-induced immunosuppression", "setting": "WBC, NEU and LYMPH; combination with apraglutide", "result": "no negative impact"},
      {"measurement": "engraftment rate in blood, spleen and bone marrow (CD45 expression)", "setting": "[7]; apraglutide 3.3 mg/kg Days −6 to 18, TBI 1.44 Gy, hPBMC 3×10^7", "result": "not affected"},
      {"measurement": "hCD45+ cells infiltration in the intestinal wall", "setting": "[7]; apraglutide vs vehicle", "result": "no difference"}
    ]}
  ]
}
